These are literature values, as cited in US20100086572A1, “RATIONAL PPI DOSAGE FORMS” (priority 2005, published 2010).

SMILES strings stand for the structures. Like-named read-outs stand apart in the source and are kept apart here.

The conditions of data set [1]: 0.5 hours.
In data set [2] the test system is experimentally induced colitis. To be noted: in vivo.

Consider `Cc1c(OCC(F)(F)F)ccnc1C[S+]([O-])c1nc2ccccc2[nH]1` (stereo not drawn) [lansoprazole], for which the “area under the plasma concentration curve (AUC)” value runs as follows: (30 mg once a day) 1934 ng·h/mL; (60 mg once a day) 4743 ng·h/mL; (60 mg three times a day) 14083 ng·h/mL; (60 mg twice a day) 8508 ng·h/mL. The “drug degrading in aqueous solution” value is recorded as “About 49%” in data set [1] (pH 5, 37° C.); around 10% in data set [1] (pH 6, 37° C.); around 2% in data set [1] (pH 7, 37° C.); around 1% in data set [1] (pH 8, 37° C.). The “formation of experimentally induced colitis” value in data set [2] is on record as “inhibits the formation of experimentally induced-induced colitis”.
